Measurements reported in patent US10076519B2 (CYTOKINETICS, INC., priority 2010, dated 2018).

These compounds were tested on rabbit skeletal myofibrils (fast skeletal myofibrils) (assay: Activation of fast skeletal myofibrils (PUMA assay, PK/LDH-coupled ATPase at pCa25)). Conditions: AC1.4 determined according to the procedure of Example 39; reported as class symbols.
Format: biochemical
Procedure, shortened: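 Detergent-washed rabbit psoas myofibrils (~90% fast fibres, calcium-regulated) assayed at calcium giving 25% of maximal ATPase rate (pCa25). ADP turnover coupled via pyruvate kinase/lactate dehydrogenase to NADH oxidation, read at 340 nm. Buffer 12 mM PIPES, 2 mM MgCl2, 1 mM DTT, pH 6.8; AC1.4 values derived.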

Row | SMILES | Mean AC1.4
1 | CC(C)(CNc1ccc(-c2cccc(C(N)=O)c2)nn1)c1ncccc1F [3-(6-{[2-(3-fluoro(2-pyridyl))-2-methylpropyl]amino}pyridazin-3-yl)benzamide] | B (B=1-10 uM)
2 | CC(C)(CNc1ccc(-c2ccc(Cl)cc2)nn1)c1ccc(F)cc1 [[6-(4-chlorophenyl)pyridazin-3-yl][2-(4-fluorophenyl)-2-methylpropyl]amine] | B (B=1-10 uM)
3 | NC(=O)c1ccnc(C2(CNc3ccc(-c4cc(C(N)=O)ccc4F)nn3)CCC2)c1 | D (D=>20 uM)
4 | CC(C)(CNc1ccc(-c2ccc3[nH]nc(N)c3c2)nn1)c1ccc(F)cn1 [[6-(3-amino(1H-indazol-5-yl))pyridazin-3-yl][2-(5-fluoro(2-pyridyl))-2-methylpropyl]amine] | B (B=1-10 uM)
5 | COc1cccc(C2(CNc3ccc(-c4cc(C(N)=O)ccc4F)nn3)CCC2)n1 | A (A=<1 uM)
6 | NC(=O)c1cccc(-c2ccc(NCC3(c4ccccn4)CCC3)nn2)c1 | A (A=<1 uM)
7 | CC(C)(CNc1ccc(-c2cccc(C(N)=O)c2)nn1)c1ccc(F)cn1 [3-(6-{[2-(5-fluoro(2-pyridyl))-2-methylpropyl]amino}pyridazin-3-yl)benzamide] | C (C=10-20 uM)
8 | Cc1cc(NCC(C)(C)c2ccc(F)cc2)nnc1-c1cccc(C#N)c1 [3-(6-{[2-(4-fluorophenyl)-2-methylpropyl]amino}-4-methylpyridazin-3-yl)benzenecarbonitrile] | B (B=1-10 uM)
9 | CC1(C)C(=O)Nc2cc(-c3ccc(NCC4(c5ncccc5F)CCC4)nn3)ccc21 | D (D=>20 uM)
10 | NC(=O)n1nc(N)c2cc(-c3ccc(NCC4(c5ncccc5F)CCC4)nn3)ccc21 | B (B=1-10 uM)
11 | NC(=O)c1ccc(-c2ccc(NCC3(c4ncccc4F)CCC3)nn2)cc1 | B (B=1-10 uM)
12 | CC(C)(CNc1ccc(-c2n[nH]c(=O)o2)nn1)c1ccc(F)cc1 [5-(6-{[2-(4-fluorophenyl)-2-methylpropyl]amino}pyridazin-3-yl)-1,3,4-oxadiazolin-2-one] | C (C=10-20 uM)
13 | CC(C)(CNc1nnc(-c2cccc(C(N)=O)c2)cc1C#N)c1ccc(F)cc1 [3-(5-cyano-6-{[2-(4-fluorophenyl)-2-methylpropyl]amino}pyridazin-3-yl)benzamide] | C (C=10-20 uM)
14 | CC(C)(O)c1n[nH]c2ccc(-c3ccc(NCC(C)(C)c4ccc(F)cc4)nn3)cc12 [2-[5-(6-{[2-(4-fluorophenyl)-2-methylpropyl]amino}pyridazin-3-yl)-1H-indazol-3-yl]propan-2-ol] | B (B=1-10 uM)
15 | NC(=O)c1ccc(F)c(-c2ccc(NCC3(c4cc(O)ccn4)CCC3)nn2)c1 | D (D=>20 uM)
16 | CC(C)(CNc1ccc(-c2ccc3[nH]nc(CO)c3c2)nn1)c1ccc(F)cc1 [[5-(6-{[2-(4-fluorophenyl)-2-methylpropyl]amino}pyridazin-3-yl)-1H-indazol-3-yl]methan-1-ol] | A (A=<1 uM)
17 | CC(C)(CNc1ccc(-c2ccc3nc(N)[nH]c3c2)nn1)c1ccc(F)cc1 [[6-(2-aminobenzimidazol-5-yl)pyridazin-3-yl][2-(4-fluorophenyl)-2-methylpropyl]amine] | A (A=<1 uM)
18 | NC(=O)c1cccc(-c2ccc(NCCc3ccc(F)cc3)nn2)c1 | D (D=>20 uM)
19 | CC(C)(CNc1ccc(-c2noc(C(N)=O)n2)nn1)c1ccc(F)cc1 [3-(6-{[2-(4-fluorophenyl)-2-methylpropyl]amino}pyridazin-3-yl)-1,2,4-oxadiazole-5-carboxamide] | C (C=10-20 uM)
20 | O=C(O)c1cc(-c2ccc(NCC3(c4ncccc4F)CCC3)nn2)ccc1F | B (B=1-10 uM)
21 | CC(C)(CNc1ccc(-c2ccc3nc[nH]c(=O)c3c2)nn1)c1ccc(F)cc1 | B (B=1-10 uM)

Same assay, conditions: median AC1.4 class, procedure of Example 39

Row | SMILES | Mean AC1.4
22 | NC(=O)C1CCCN(C(=O)c2cnc(-c3ccc(NCC4(c5ncccc5F)CCC4)nn3)s2)C1 (stereo not shown) [1-({2-[6-({[(3-fluoro-2-pyridyl)cyclobutyl]methyl}ami-no)pyridazin-3-yl]-1,3-thiazol-5-yl}carbonyl)piperidine-3-carboxamide] | C (C=10-20 uM)
23 | NS(=O)(=O)Nc1ccc(-c2ccc(NC3(c4ncccc4F)CCC3)nn2)c(F)c1 | B (B=1-10 uM)
24 | Fc1cccnc1C1(CNc2ccc(-c3ncc(-c4cn[nH]c4)s3)nn2)CCC1 [{[(3-fluoro(2-pyridyl))cyclobutyl]methyl}[6-(5-pyrazol-4-yl(1,3-thiazol-2-yl))pyridazin-3-yl]amine] | A (A=<1 uM)
25 | CC(C)NC(=O)c1ccc(F)c(-c2ccc(NC[C@]3(c4ncccc4F)C[C@H](F)C3)nn2)c1 [{4-fluoro-3-[6-({[3-fluoro-1-(3-fluoro(2-pyridyl))cyclobutyl]methyl}ami-no)pyridazin-3-yl]phenyl}-N-(methylethyl)carboxamide] | A (A=<1 uM)
26 | NC(=O)C1CN=C(c2ccc(NCC3(c4ncccc4F)CCC3)nn2)N1 (stereo not shown) | D (D=>20 uM)
27 | Fc1cccnc1C1(CNc2ccc(-c3ccccn3)nn2)CCC1 [{[(3-fluoro(2-pyridyl))cyclobutyl]methyl}(6-(2-pyridyl)pyridazin-3-yl)amine] | B (B=1-10 uM)
28 | O=C(CNC(=O)c1ccc(NCC2(c3ncccc3F)CCC2)nn1)OCc1ccccc1 [phenylmethyl 2-{[6-({[(3-fluoro-2-pyridyl)cyclobutyl]methyl}ami-no)pyridazin-3-yl]carbonylamino}acetate] | D (D=>20 uM)
29 | CCc1ccc(NCC2(c3ncccc3F)CCC2)nn1 [(6-ethylpyridazin-3-yl){[(3-fluoro(2-pyridyl))cyclobutyl]meth-yl}amine] | D (D=>20 uM)
30 | Fc1cccnc1C1(CNc2ccc(-c3ccc(NCC4(c5ncccc5F)CCC4)nn3)nn2)CCC1 | D (D=>20 uM)
31 | NC(=O)c1cccc(-c2ccc(NC3(c4ccccc4F)CCC3)nn2)c1 | A (A=<1 uM)
32 | O=C(NCc1cnc(-c2ccc(NCC3(c4ncccc4F)CCC3)nn2)s1)[C@H]1CCCN1 [((2R)pyrrolidin-2-yl)-N-({2-[6-({[(3-fluoro(2-pyridyl))cyclobutyl]methyl}ami-no)pyridazin-3-yl](1,3-thiazol-5-yl)}methyl)carboxamide] | A (A=<1 uM)
33 | N#Cc1cccc(-c2ccc(NC[C@]3(c4ncccc4F)C[C@H](F)C3)nn2)c1 [3-[6-({[3-fluoro-1-(3-fluoro(2-pyridyl))cyclobutyl]methyl}ami-no)pyridazin-3-yl]benzenecarbonitrile] | B (B=1-10 uM)
34 | COC(=O)C1CN=C(c2ccc(NCC3(c4ncccc4F)CCC3)nn2)N1 (stereo not shown) | D (D=>20 uM)
35 | CC1(Nc2ccc(-c3cc(C(N)=O)ccc3F)nn2)CCC1 | D (D=>20 uM)
36 | NC(=O)C1CN(C(=O)c2cnc(-c3ccc(NCC4(c5ncccc5F)CCC4)nn3)s2)CCN1 (stereo not shown) [4-({2-[6-({[(3-fluoro-2-pyridyl)cyclobutyl]methyl}ami-no)pyridazin-3-yl]-1,3-thiazol-5-yl}carbonyl)piperazine-2-carboxamide] | B (B=1-10 uM)
37 | NC(=O)c1ccc(-c2ccc(NCC3(c4ncccc4F)CCC3)nn2)s1 [5-[6-({[(3-fluoro-2-pyridyl)cyclobutyl]methyl}ami-no)pyridazin-3-yl]thiophene-2-carboxamide] | A (A=<1 uM)
38 | CC(C)C(=O)NCc1cnc(-c2ccc(NCC3(c4ncccc4F)CCC3)nn2)s1 [N-({2-[6-({[(3-fluoro(2-pyridyl))cyclobutyl]methyl}ami-no)pyridazin-3-yl](1,3-thiazol-5-yl)}methyl)-2-methylpropanamide] | A (A=<1 uM)

Same assay, conditions: median AC1.4 reported as class; procedure of Example 39

Row | SMILES | Mean AC1.4
39 | Cc1cc(NCC2(c3ncccc3F)CCC2)nnc1-c1cccc(C(N)=O)c1 [3-[6-({[(3-fluoro(2-pyridyl))cyclobutyl]methyl}ami-no)-4-methylpyridazin-3-yl]benzamide] | C (C=10-20 uM)
40 | CN(Cc1cnc(-c2ccc(NCC3(c4ncccc4F)CCC3)nn2)s1)C(=O)CO [N-({2-[6-({[(3-fluoro(2-pyridyl))cyclobutyl]methyl}ami-no)pyridazin-3-yl](1,3-thiazol-5-yl)}methyl)-2-hydroxy-N-methylacetamide] | B (B=1-10 uM)
41 | O=C(N[C@H]1CCOC1)c1cccc(-c2ccc(NC[C@]3(c4ncccc4F)C[C@H](F)C3)nn2)c1 [N-((3S)oxolan-3-yl){3-[6-({[3-fluoro-1-(3-fluoro(2-pyridyl))cyclobutyl]methyl}ami-no)pyridazin-3-yl]phenyl}carboxamide] | B (B=1-10 uM)
42 | NC(=O)c1cc(-c2ccc(NCC3(c4ncccc4F)CCC3)nn2)c(F)cc1O [4-fluoro-5-[6-({[(3-fluoro(2-pyridyl))cyclobutyl]methyl}ami-no)pyridazin-3-yl]-2-hydroxybenzamide] | A (A=<1 uM)
43 | CNC(=O)Cc1cnc(-c2ccc(NCC3(c4ncccc4Cl)CCC3)nn2)s1 [2-{2-[6-({[(3-chloro(2-pyridyl))cyclobutyl]methyl}ami-no)pyridazin-3-yl](1,3-thiazol-5-yl)}-N-methylacetamide] | A (A=<1 uM)
44 | OC[C@H]1CNCCN1Cc1cnc(-c2ccc(NCC3(c4ncccc4F)CCC3)nn2)s1 [[(2R)-1-({2-[6-({[(3-fluoro(2-pyridyl))cyclobutyl]methyl}ami-no)pyridazin-3-yl](1,3-thiazol-5-yl)}methyl)piperazin-2-yl]methan-1-ol] | C (C=10-20 uM)
45 | O=C(Nc1ncco1)c1ccc(NCC2(c3ncccc3F)CCC2)nn1 [[6-({[(3-fluoro(2-pyridyl))cyclobutyl]methyl}ami-no)pyridazin-3-yl]-N-(1,3-oxazol-2-yl)carboxamide] | D (D=>20 uM)
46 | O=C(NC1CS(=O)(=O)C1)c1cccc(-c2ccc(NC[C@]3(c4ncccc4F)C[C@H](F)C3)nn2)c1 [N-(1,1-dioxothietan-3-yl){3-[6-({[3-fluoro-1-(3-fluoro(2-pyridyl))cyclobutyl]methyl}ami-no)pyridazin-3-yl]phenyl}carboxamide] | B (B=1-10 uM)
